Earlier results on one compound are cited in US11492588B2, “Lactococcus lactis subsp. lactis CCFM1018 and application thereof in preparation of food and medicine for excreting plasticizer” (priority 2018, dated 2022).

Bounds are passed on as bounds.

The conditions of this data set: human body.

As to `CCCCC(CC)COC(=O)c1ccccc1C(=O)OCC(CC)CCCC` (stereo not shown) [DEHP, di(2-ethylhexyl) phthalate], the “Absorption and distribution period” value was 4 to 8 h; the “Time within which most of the DEHP is completely metabolized” value is not above 24 h. Besides, for the setting “24 h after entry”, the “Share converted into five secondary metabolites and excreted in urine” value is “about 67%”; the “Share directly excreted in urine” value was “less than 10%”.
